Source: US20230391842A1, “RETRO-INVERSO PEPTIDES” (Herantis Pharma OYJ, priority 2019, published 2023)
One block for each molecule: values may come before it. Positions of bridges follow the written chain, without caps; N, C: chain ends. Non-standard residues stand in square brackets, D forms with d. Residues, ends and D or L forms follow the SMILES beside them. No end group written: not given here.

Legend:
[1] = biological target: nucleotide-binding domain of GRP78 (GRP78-NBD); experiment: Binding to GRP78-NBD Kd (μM)
Description: Table printed on a drawing sheet, FIG. 5B
Head of the field: Binding to GRP78-NBD Kd (μM)
GRP78-NBD is shown in a to translucent surface model along with its cartoon trace. The Cys-Cys bond in compound 14 (SEQ ID NO: 14) is shown in sticks.
The binding affinities are obtained by microscale thermophoresis-based cell free assay.
GSK2606414 was used to inhibit PERK signaling and KIRA6 to inhibit IRE1alpha signaling. * p<0.05, ** p<0.01, *** p<0.001, **** p<0.0001 one-way ANOVA test with post-hoc Fisher's LSD test for pairwise comparison vs MPP+ negative control. #p<0.05, ##p<0.01, ###p<0.001, ####p<0.0001 one-way ANOVA test with post-hoc Fisher's LSD test for pairwise comparison between effect of compound alone and its combination with UPR signal inhibitor.
Where the first naming reader finds the target: head: Binding to GRP78-NBD Kd (μM)

[2] = In vivo pharmacokinetics after intravenous administration to rats; conditions: rat, 5 mg/kg intravenous bolus injection, male Sprague-Dawley rats, plasma; for clearance: read-out: CI
Method: Test compounds were intravenously (i.v.) administered to male Spraque-Dawley rats (about six weeks old, n=3 per compound) at 5 mg/kg. Blood samples were collected from jugular vein through implanted in-dwelling catheters (250 μl blood) into labelled polypropylene tubes containing anticoagulant (heparin) at 2 min, 5 min, 15 min, 30 min, 1 h, 2 h and 4 h after compound administration and held on wet ice for a maximum of 30 minutes. The blood samples were centrifuged for plasma separation (4° C., 21100 G, 5 min). Tolbutamide 500 ng/ml with 10% TFA in acetonitrile or in MeCN was used as an internal standard solution. The standard samples were prepared into rat plasma by spiking the matrix into concentrations 2-10 000 ng/ml of the analyte, respectively, and otherwise treated as the samples. To 50 μl aliquots of sample plasma was added 200 μl of internal standard. Samples were mixed (150 rpm, 15 min) and centrifugated (3000 rpm, 15 min). The analytical method was optimized for reaction monitoring chromatographic (peak shape & retention) shifts and mass spectrometric properties (ionization efficiency, MS/MS detection). Supernatants were is analyzed by UHPLC-TOF mass spectrometry using electrospray ionization. […]

[3] = test system: 3D in vitro model of blood brain barrier; experiment: Permeation in a 3D in vitro model of blood-brain barrier; conditions: 500 nM, 2 h
[4] = test system: dopaminergic TH-positive neurons injured with MPP+; experiment: Neuroprotective effect on dopaminergic TH-positive neurons injured with MPP+ (primary mesencephalic culture); assay type: cell-based, rat; conditions: MPP+ 4 μM, 48 h; for potency of retro-inverso peptides relative to their parent compounds and to full-length CDNF protein: stated for 'most cases'
Method: Neuroprotective effects of compounds 1-20 (SEQ ID NO:s 1-20, parent and retro-inverso) were tested in an in vitro model in which primary cultures of rat embryonic mesencephalic neurons were stressed with MPP+, the active metabolite of neurotoxin 1-methyl-4-phenyl-1,2,3,6-tetrahydropyridine (MPTP). MPP+ kills dopaminergic (TH-positive) neurons via a variety of toxic mechanisms, including mitochondrial dysfunction, generation of peroxynitrite, oxidative stress, ER stress and induction of apoptosis.
Rat dopaminergic neurons were cultured as described by Visanji et al., 2008. Briefly, the midbrains obtained from 15-day-old rat embryos (Janvier, France) were dissected, and the ventral portion of the mesencephalic flexure, a region of the developing brain rich in dopaminergic neurons, was used for the cell preparations. The midbrain cells were dissociated by trypsinization for 20 min at 37° C. […] The reaction was stopped by adding Dulbecco's modified Eagle's medium (DMEM) containing DNAase I grade II (0.5 mg/mL) and 10% of fetal calf serum (FCS). Cells were then mechanically dissociated by 3 passages through a 10 ml pipette. Cells were then centrifuged at 180×g for 10 min at +4° C. on a layer of BSA (3.5%) in L15 medium. The cell pellets was re-suspended in a defined culture serum-free medium consisting of Neurobasal (Invitrogen) supplemented with B27 (2%), L-glutamine (2 mM) and 2% of PS solution and 10 ng/ml of Brain-derived neurotrophic factor (BDNF) and 1 ng/mL of Glial-Derived Neurotrophic Factor (GDNF). […] The cells were seeded at a density of 40 000 cells/well in 96 well-plates (pre-coated with poly-L-lysine) and maintained in a humidified incubator at 37° C. in 5% CO2/95% air atmosphere. Half of the medium was changed every 2 days with fresh medium. On 96-wells plates, only 60 wells are used. To avoid any edge effect, the first and last lines and columns were not be used for culture and were filled with sterile water.
On day 6 of culture, CDNF or the compounds 1-20 (SEQ ID NO:s 1-20, parent and retro-inverso), were dissolved in culture medium and then pre-incubated with mesencephalic neurons for 4 hours before the MPP+ application. Four hours after the preincubation of the compounds, MPP+ was added to a final concentration of 4 μM, diluted in control medium still in presence of compounds for 48 h.
48 hours after intoxication, the cells were fixed by a solution of 4% paraformaldehyde in PBS, pH 7.3 for 20 min at room temperature. The cells were washed twice in PBS, and then permeabilized and non-specific sites were blocked with a solution of PBS containing 0.1% of saponin and 1% FCS for 15 min at room temperature. Next, the cells were incubated with (a) a monoclonal antibody anti-Tyrosine Hydroxylase (TH) produced in mouse at dilution of 1:1 0000 and with (b) a polyclonal antibody anti-alpha-synuclein (aSyn) antibody produced in rabbit at dilution of 1:400 in PBS containing 1% FCS, 0.1% saponin, for 2 h at room temperature.
48 hours after intoxication, the cell culture supernatant was removed, and the cells fixed by a solution of 4% paraformaldehyde in PBS, pH 7.3 for 20 min at room temperature. The cells were washed twice in PBS, and then permeabilized and non-specific sites were blocked with a solution of PBS containing 0.1% of saponin and 1% FCS for 15 min at room temperature. Then, the cells were incubated with a) a monoclonal Anti-Tyrosine Hydroxylase (TH) antibody produced in mouse at dilution of 1:10000 in PBS containing 1% FCS, 0.1% saponin, for 2 hours at room temperature, and b) a polyclonal anti-postsynaptic density protein-95 (PSD-95) antibody produced in rabbit at dilution of 1:200 in PBS containing 1% FCS, 0.1% saponin, for 2 h at room temperature. This antibody stains specifically synapses.
For each condition, pictures representing the whole well area were automatically acquired using ImageXpress (Molecular device) at 10× (20 pictures, for TH and a-syn) or at 40× magnification (60 pictures, for TH and PSD-95). […]

[5] = test system: human hepatocytes; experiment: In vitro metabolic stability in human hepatocytes; conditions: 1 μM, 37° C., 0-60 min
[6] = test system: rat hepatocytes; experiment: In vitro metabolic stability in rat hepatocytes; conditions: 1 μM, 37° C., 0-60 min
[7] = In vitro metabolic stability in rat plasma; assay type: in vitro ADME; conditions: 1 μM, 37° C., up to 120 min
Method: Metabolic stability of the retro-inverso and native control peptides was studied using rat plasma over the time period of 120 min, with initial test concentration of 1 μM. Samples were analysed using LC/QE-orbitrap-MS. Calculated half-life is based on compound disappearance in rat plasma.
The incubation was terminated by acetonitrile. […] Stock solutions was prepared using 50% DMSO, and the compounds were spiked 1/100 to incubation to have final DMSO content of 0.5%. […] For analysis of compounds 13-14 and 19-20 stock solutions were prepared with PBS, and samples were analyzed by UHPLC-ToF mass spectrometry. Enalapril 1 μM was used as a disappearance rate control.

Molecule: C[C@H](O)[C@@H](NC(=O)[C@H]1CSSC[C@@H](NC(=O)[C@@H](C)NC(=O)[C@@H](CCC(=O)O)NC(=O)[C@@H](CCCCN)NC(=O)[C@H](N)CO)C(=O)NCC(=O)NCC(=O)N[C@H](CCCCN)C(=O)N1)C(=O)N[C@H](CCC(=O)O)C(=O)NCC(=O)O [Compound 12, SKEACGGKCTEG] (H-[dS][dK][dE][dA][dC]GG[dK][dC][dT][dE]G-OH; disulfide 5-9; N-terminus and C-terminus assumed)
- AUC(0-inf) [2]: 4310 ng·h/mL
- MRT [2]: 22.9 min
- Vd [2]: 0.45 L/kg
- half-life [2]: 19.7 min
- clearance [2]: 19.5 mL/min/kg
- ability to pass through the in vitro blood-brain barrier as compared to parent compound [3]: improved ability to pass

Molecule: KEACARCEEGWSHLIQKLEAVRM [Compound 2]
- potency of retro-inverso peptides relative to their parent compounds and to full-length CDNF protein [4]: comparable

Molecule: KEACGKCTEGWDDLIKKLEKVRL ([dK][dE][dA][dC]G[dK][dC][dT][dE]G[dW][dD][dD][dL][dI][dK][dK][dL][dE][dK][dV][dR][dL]; disulfide 4-7) [Compound 4]
- stability in human hepatocytes as compared to parent compound [5]: significantly improved stability
- stability in rat hepatocytes as compared to parent compound [6]: significantly improved stability
- ability to pass through the in vitro blood-brain barrier as compared to parent compound [3]: improved ability to pass
- potency of retro-inverso peptides relative to their parent compounds and to full-length CDNF protein [4]: comparable

Molecule: CDNF: full-length cerebral dopamine neurotrophic factor protein (rhCDNF), unconventional neurotrophic factor
- alpha-synuclein (aSyn) aggregates / inclusions in TH-positive neurons [4]: reducing accumulation
- protection of TH-positive neurons, their neurites and synapses from MPP+ toxicity [4]: neuroprotective

Molecule: KEACGKCTE ([dK][dE][dA][dC]G[dK][dC][dT][dE]; disulfide 4-7) [Compound 16]
- potency of retro-inverso peptides relative to their parent compounds and to full-length CDNF protein [4]: comparable

Molecule: TKEACAGRCEEG ([dT][dK][dE][dA][dC][dA]G[dR][dC][dE][dE]G; disulfide 5-9) [Compound 10]
- potency of retro-inverso peptides relative to their parent compounds and to full-length CDNF protein [4]: comparable

Molecule: GEECRACAEKT (disulfide 4-7) [Compound 5]
- Kd [1]: 3.21 µM

Molecule: EACARCEE ([dE][dA][dC][dA][dR][dC][dE][dE]; disulfide 3-6) [Compound 18] [listing 1 of 2 here]
- potency of retro-inverso peptides relative to their parent compounds and to full-length CDNF protein [4]: comparable

Molecule: C[C@H](O)[C@@H](N)C(=O)N[C@H](CCCCN)C(=O)N[C@H](CCC(=O)O)C(=O)N[C@H](C)C(=O)N[C@@H]1CSSC[C@H](C(=O)N[C@H](CCC(=O)O)C(=O)N[C@H](CCC(=O)O)C(=O)NCC(=O)O)NC(=O)[C@@H](CCCNC(=N)N)NC(=O)[C@@H](C)NC1=O [Compound 6, TKEACARCEEG]
- stability in human hepatocytes as compared to parent compound [5]: significantly improved stability
- AUC(0-inf) [2]: 15500 ng·h/mL
- MRT [2]: 29.4 min
- Vd [2]: 0.16 L/kg
- half-life [2]: 24.5 min
- clearance [2]: 5.69 mL/min/kg
- stability in rat hepatocytes as compared to parent compound [6]: significantly improved stability
- ability to pass through the in vitro blood-brain barrier as compared to parent compound [3]: improved ability to pass
- Kd [1]: 3.86 µM
- potency of retro-inverso peptides relative to their parent compounds and to full-length CDNF protein [4]: comparable

Other lines, results leading:

- Kd [1]: 6.2 µM
Molecule: SKEACGGKCTEG ([dS][dK][dE][dA][dC]GG[dK][dC][dT][dE]G; disulfide 5-9) [Compound 12]

- Kd [1]: 14.3 µM
Molecule: ETCKGCAE (disulfide 3-6) [Compound 19]

- Kd [1]: 0.3 µM
Molecule: EECRACAE (disulfide 3-6) [Compound 17]

- Kd [1]: 0.68 µM
Molecule: KEACARCEE ([dK][dE][dA][dC][dA][dR][dC][dE][dE]; disulfide 4-7) [Compound 14]

- AUC(0-inf) [2]: 7500 ng·h/mL
- MRT [2]: 19.2 min
- Vd [2]: 0.21 L/kg
- half-life [2]: 18.4 min
- clearance [2]: 11.4 mL/min/kg
- stability in rat hepatocytes as compared to parent compound [6]: significantly improved stability
- stability in rat plasma as compared to parent compound [7]: significantly improved stability
Molecule: C[C@@H](NC(=O)[C@@H](CCC(=O)O)NC(=O)[C@H](N)CCCCN)C(=O)N[C@@H]1CSSC[C@H](C(=O)N[C@H](CCC(=O)O)C(=O)N[C@H](CCC(=O)O)C(=O)O)NC(=O)[C@@H](CCCNC(=N)N)NC(=O)[C@@H](C)NC1=O [Compound 14, KEACARCEE] (H-[dK][dE][dA][dC][dA][dR][dC][dE][dE]-OH; disulfide 4-7; N-terminus and C-terminus assumed)

- Kd [1]: 1.23 µM
Molecule: EACARCEE ([dE][dA][dC][dA][dR][dC][dE][dE]; disulfide 3-6) [Compound 18] [listing 2 of 2 here]
